Assay results from PMC12642047, “Marine-derived Acremonium strain prioritization using untargeted metabolomics approach for the identification of cytotoxic cyclic depsipeptides” (BMC Biotechnology, 2025).
Like-named read-outs stand apart in the source and are kept apart here. *1 amine or outer side, *2 acyl side, *3 side chain or, on linkers, in order; H or OH if unused. Where a SMILES comes first, the peptide text is derived from it. [ ]: non-standard residue; d: D form. ξ: configuration not given here. Pentanoyl(2-O,4-OH,5-Cl) = O=C(O)C(O)CC(O)CCl; NMeI = CC[CH](C)[CH](NC)C(=O)O; X1 = CC1CCN([*:1])C1C(=O)[*:2]; ξLac(3-iPr) = CC(C)CC(O)C(=O)O; NMeA = CN[CH](C)C(=O)O; βAla = NCCC(=O)O

What was measured:
A2058 (human melanoma) = experiment: MTS cytotoxicity assay (CellTiter 96 AQueous One), compounds, 72 h; format: cell-based; conditions: A2058 cells
Method: (§1) Compounds 1 − 5 were tested for their cytotoxic effects against several cancer cell lines, including MOLM-13 (acute myeloid leukemia), MV-4-11 (biphenotypic B myelomonocytic leukemia), THP-1 (acute monocytic leukemia), A2058 (human melanoma), MCF7 (human breast adenocarcinoma), and non-cancerous MRC-5 (normal lung fibroblast) using an MTS based CellTiter 96® AQueous One Solution Assay. In short, the cells were cultured in appropriate media supplemented with 10% fetal bovine serum (FBS): MOLM-13, MV-4-11 cells in RPMI medium, THP-1 cells in RPMI medium with ultra-low endotoxin FBS, MCF7 and MRC-5 in MEM Eagle medium along with other amino acid supplements, and A2058 cells in DMEM medium. After harvesting, they were seeded into 96-well plates. The cells were then treated with the test compounds at various concentrations and incubated for 72 h. Following the incubation period, an MTS assay was conducted, and the absorbance of the solution was measured using a microplate reader spectrophotometer (Tecan spark plate reader) at a wavelength of 490 nm. The half-maximum inhibitory concentration (IC50) values were calculated using the drc_3.0–1 package in R (Supplementary page S60-S61). DMSO (10%) was used as the positive control, and cell culture media as the negative control. All samples were tested in triplicate.
(§2) The results were plotted in a dose-response curve as shown in Figure S97 and the half-maximum inhibitory concentration (IC50) values were calculated using R. A 4-parameter logistic (4PL) dose-response model was applied to analyse the relationship between the concentration and the observed response (absorbance at 490 nm). […] The model was fitted to the experimental data using the drm function from the drc_3.0-1 package in R and IC50 values were determined as the concentration (μM) corresponding to 50% cell survival.

[1] = tested on: MCF7 (human breast adenocarcinoma); experiment: as above; format: cell-based; conditions: MCF7 cells
Method: as §1, §2

[2] = tested on: MOLM-13 (acute myeloid leukemia); experiment: as above; format: cell-based; conditions: Homo sapiens, MOLM-13 cells
Method: as §1, §2

[3] = tested on: MRC-5 (normal lung fibroblast); experiment: as above; format: cell-based; conditions: Homo sapiens, MRC5, MRC-5 normal lung fibroblasts
Method: as §1, §2

[4] = tested on: MV-4-11 (biphenotypic B myelomonocytic leukemia); experiment: as above; format: cell-based; conditions: Homo sapiens, MV4-11, MV-4-11 cells
Method: as §1, §2

[5] = tested on: THP-1 (acute monocytic leukemia); experiment: as above; format: cell-based; conditions: Homo sapiens, THP-1 cells
Method: as §1, §2

[6] = tested on: erythropoietin gene expression; design: method as in PMID 9514014; conditions: cited from earlier work
MCF7 = tested on: MCF7; design: method as in PMID 30572686; conditions: read-out: IC50 MCF7 (previously reported), cited from earlier work
[7] = tested on: HL-60 (acute promyelocytic leukemia); design: method as in PMID 30572686; conditions: HL-60 cells; read-out: IC50 HL-60 (previously reported); cited from earlier work
insects = tested on: insects; design: method as in doi:10.1021/np9601216; conditions: cited from earlier work
[8] = tested on: PDGF-BB/PDGFR-ββ signalling; design: method as in PMID 27322468; conditions: cited from earlier work
plants = conditions: cited from earlier work

| Structure (SMILES) | IC50 (A2058 (human melanoma)) | IC50 [1] | IC50 [2] | IC50 [3] | IC50 [4] | IC50 [5] | Erythropoietin gene expression [6] | IC50 (A2058 (human melanoma); value marked * expressed in nM) | IC50 ([1]; value marked * expressed in nM) | IC50 (MCF7; MCF7 cell line) | IC50 (MCF7; MCF7 cells) | IC50 [7] | Entomopathogenic activity (insects) | Inhibition of PDGF-BB/PDGFR-ββ signalling [8] | Phytotoxic activity (plants) |
| --- | --- | --- | --- | --- | --- | --- | --- | --- | --- | --- | --- | --- | --- | --- | --- |
| CCC(C)C1NC(=O)C2CCCN2C(=O)C(CC(O)CCl)OC(=O)CCNC(=O)C(C)N(C)C(=O)C(C(C)CC)N(C)C1=O (stereo not shown) [Compound 1, destruxin-A4 chlorohydrin] (cyclo([Pentanoyl(2-O,4-OH,5-Cl)]PI[NMeI][NMeA][βAla]); configuration not given here) | 1100 nM | 800 nM | 400 nM | 2200 nM | 700 nM | 2200 nM | induced erythropoietin gene expression |  |  |  |  |  |  |  |  |
| CCC(C)C1NC(=O)C2C(C)CCN2C(=O)C(CC(O)CCl)OC(=O)CCNC(=O)C(C)N(C)C(=O)C(C(C)CC)N(C)C1=O (stereo not shown) [Compound 2, trichomide D] (cyclo([X1]I[NMeI][NMeA][βAla][Pentanoyl(2-O,4-OH,5-Cl)]); configuration not given here) |  |  | 500 nM | 1200 nM | 800 nM | 2100 nM |  | 40 nM | 40 nM | 79 nM | 79 nM | 107 nM |  |  |  |
| C=CCC1OC(=O)CCNC(=O)C(C)N(C)C(=O)C(C(C)CC)N(C)C(=O)C(C(C)CC)NC(=O)C2C(C)CCN2C1=O (stereo not shown) [Compound 3, destruxin-A5] | 6600 nM | 5200 nM | 3000 nM | 15200 nM | 7200 nM | 8700 nM |  |  |  |  |  |  | entomopathogenic activity | selectively inhibit |  |
| CCC(C)C1NC(=O)C2CCCN2C(=O)C(CC(C)C)OC(=O)CCNC(=O)C(C)N(C)C(=O)C(C(C)CC)N(C)C1=O (stereo not shown) [Compound 4, homodestruxin B] (cyclo([ξLac(3-iPr)]PI[NMeI][NMeA][βAla]); configuration not given here) | 30200 nM | 12300 nM | 5500 nM | > 40000 nM | 14600 nM | 16200 nM |  |  |  |  |  |  |  |  | phytotoxic activity |
| CCC(C)C1NC(=O)C2C(C)CCN2C(=O)C(CC(C)C)OC(=O)CCNC(=O)C(C)N(C)C(=O)C(C(C)CC)N(C)C1=O (stereo not shown) [Compound 5, homodestcardin] (cyclo([X1]I[NMeI][NMeA][βAla][ξLac(3-iPr)]); configuration not given here) | 2600 nM | 2100 nM | 3600 nM | 5600 nM | 12500 nM | 16000 nM |  |  |  |  |  |  |  |  |  |
